Reference: patent US9808433B2, “Combination of a centrally-acting analgesic and a selective cyclooxygenase-2 inhibitor anti-inflammatory agent for the treatment of inflammation and pain in the veterinary field” (FORMEVET S.R.L., priority 2010, dated 2017)

How the values were obtained:
[1] = system: inflammatory oedema of the CFA-injected hind paw; assay: Complete Freund adjuvant (CFA) induced paw inflammation (oedema) in the rat, plethysmometer; format: in vivo, Sprague-Dawley rats; conditions: for ml (inflamed paw/normal paw), intensity of oedema: day 3 after CFA, mean ± SD
Experimental: An inflammation model extensively used and validated in the rat was used for the study.
Sprague-Dawley rats weighing 200-250 grams were used. The animals were housed in groups of 4 to a cage, at the temperature of 22° C.±2° C., with a light-dark cycle of 12/12-hour and unlimited access to food and water. The animals were used after a week's acclimatisation in the housing facility. Each test group consisted of 8 rats.
Inflammation was induced in one limb of the rat by administering a suspension of complete Freund adjuvant (CFA) containing 0.1 mg/0.1 ml of inactivated mycobacterium tuberculosis (H37Ra, ATCC 25177), in paraffin oil and mannide monooleate. The CFA was injected into the plantar surface of the left hind paw of the rat. This method induces reproducible inflammation characterised by oedema and pain.
All the medicaments were administered 3 days after the inflammation was induced with CFA. The Firocoxib was resuspended in a carrier consisting of 0.5% methocel, and administered orally in the volume of 1 ml at the doses of 2.5 and 5 mg/Kg.
The dose of 2.5 mg/Kg was combined with Tramadol at the dose of 4 mg/Kg. Tramadol dissolved in saline was administered by the intraperitoneal route (i.p., 0.2 ml/100 grams of weight) 30 minutes […] the Firocoxib. Inflammatory oedema was evaluated 1 hour after the Tramadol, corresponding to 90 minutes after the Firocoxib. […] The control animals were treated per os with the carrier, and i.p. with the same volume of saline.
The intensity of the oedema was measured on day 3 after intraplantar administration of CFA, 90 minutes after Firocoxib, corresponding to 1 hour after i.p. administration of Tramadol. We chose to evaluate the oedema 3 days after it was induced, because it is largest at this time. The paw swelling (oedema) was evaluated by measuring the volume of both hind paws using a specific instrument, the plethysmometer (7150 plethysmometer, Basile, Comerio, Italy). The results are expressed as the algebraic difference between the volume in ml of the inflamed paw (injected with CFA) and the normal uninflamed paw: the greater the difference, the larger the oedema present.
The values are the mean±SD of 8/10 rats.
The significance of the anti-inflammatory activity was evaluated with the Analysis of Variance (ANOVA) test, followed by the Bonferroni multiple comparison test. ANOVA test is the most suitable statistical test when more than 2 treatment groups are present. It is a restrictive test because it takes account of the variability of all the trial groups.

[2] = cited from earlier work
COX-1 = target: T1, COX-1 (Canis lupus familiaris, UniProt Q8HZR1); conditions: dog, low therapeutic doses; cited from earlier work
T1 sequence (Q8HZR1 28-603): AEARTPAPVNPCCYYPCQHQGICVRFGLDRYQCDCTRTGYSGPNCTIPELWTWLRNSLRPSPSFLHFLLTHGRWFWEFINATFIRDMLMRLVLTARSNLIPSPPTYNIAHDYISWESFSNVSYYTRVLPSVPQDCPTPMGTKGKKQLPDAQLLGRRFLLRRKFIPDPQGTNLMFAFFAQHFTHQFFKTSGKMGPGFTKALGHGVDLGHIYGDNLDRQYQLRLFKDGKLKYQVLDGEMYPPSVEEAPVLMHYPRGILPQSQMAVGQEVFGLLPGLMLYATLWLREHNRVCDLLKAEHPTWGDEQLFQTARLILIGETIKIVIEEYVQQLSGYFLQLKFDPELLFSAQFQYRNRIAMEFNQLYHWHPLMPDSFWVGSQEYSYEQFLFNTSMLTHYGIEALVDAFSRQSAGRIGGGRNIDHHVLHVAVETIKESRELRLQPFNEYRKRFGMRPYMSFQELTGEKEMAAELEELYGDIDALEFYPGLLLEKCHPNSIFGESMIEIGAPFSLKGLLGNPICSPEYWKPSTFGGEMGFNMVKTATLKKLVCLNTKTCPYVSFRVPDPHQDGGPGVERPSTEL

## COc1cccc(C2(O)CCCCC2CN(C)C)c1 (centres unmarked) [Tramadol]
[1]; Tramadol 4 mg/kg alone
  anti-inflammatory effect (in words): no anti-inflammatory effect
[1]; Tramadol 4 mg/kg i.p. alone, 60 min after Tramadol
  ml (inflamed paw/normal paw), intensity of oedema: 0.80 ± 0.06 mL
[2]; in vivo
  bond with plasma proteins: low
  elimination half-life: 1.5 to 7 h
  time to peak plasma concentration: ≤ 2 h
[2]; oral, regardless of the formulation used
  absorption after oral administration: very good absorption

## CC1(C)OC(=O)C(OCC2CC2)=C1c1ccc(S(C)(=O)=O)cc1 [Firocoxib]
COX-1
  inhibition of COX-1 (in words): do not significantly inhibit COX-1
[1]; Firocoxib 2.5 mg/kg alone
  anti-inflammatory effect (in words): completely lost its anti-inflammatory effect
[1]; Firocoxib 2.5 mg/kg p.o. alone, 90 min after Firocoxib
  ml (inflamed paw/normal paw), intensity of oedema: 0.83 ± 0.05 mL
[1]; Firocoxib 5 mg/Kg p.o. alone, 90 min after Firocoxib, p < 0.01 vs saline
  ml (inflamed paw/normal paw), intensity of oedema: 0.42 ± 0.08 mL
[1]; Rattus norvegicus, Firocoxib 5.0 mg/kg alone
  inhibition at 5 mg/kg: ~50%
